Reference: PubChem BioAssay AID296 (DTP/NCI, 2004)
Inconclusive results are not listed.

Tested on: MX-1 breast xenograft, nude mice, tumor weight T/C
Assay: NCI In Vivo Anticancer Drug Screen. Data for tumor model Human Mammary Carcinoma MX-1 Xenograft (intrarenal inoculation) in NU/NU Swiss (nude) mice
Conditions: endpoint: mean tumor weight change, higher = larger tumour
How it was run: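 Compound dosed to mice with transplantable tumor; vehicle group as control. Endpoint survival or tumour size, reported as T/C.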

[1] = dose: 300.0 mg/kg/injection, schedule: Q04DX003 (sc), vehicle: saline with Tween-80
[2] = dose: 600.0 mg/kg/injection, schedule: Q04DX003 (sc), vehicle: saline with Tween-80
[3] = dose: 1200.0 mg/kg/injection, schedule: Q04DX003 (sc), vehicle: saline with Tween-80

## COC(=O)NC1C(C)OC(OC2C/C=C(/C)C3C=CC4C(OC5CC(OC6CCC(OC7CC(O)C(OC8CCC(O)C(C)O8)C(C)O7)C(C)O6)C(OC(C)=O)C(C)O5)C(C)CC(C)C4C3(C)/C(O)=C3/C(=O)OC4(CC(C=O)=CC(O)C4/C=C\2C)C3=O)CC1(C)[N+](=O)[O-] (configuration not stated)
dose: 25.0 mg/kg/injection, schedule: Q04DX003 (sc), vehicle: other
  T/C: 95 % of control
dose: 50.0 mg/kg/injection, schedule: Q04DX003 (sc), vehicle: other
  T/C: 71 % of control

## CN1CCc2c(c3ccccc3c3ccccc23)C1
dose: 150.0 mg/kg/injection, schedule: Q04DX003 (sc), vehicle: Klucel (hydroxypropylcellulose) (HPC)
  T/C: 30 % of control
dose: 300.0 mg/kg/injection, schedule: Q04DX003 (sc), vehicle: Klucel (hydroxypropylcellulose) (HPC)
  T/C: 45 % of control

## C1CCC2OCCOCCOC3CCCCC3OCCOCCOC2C1 (configuration not stated)
dose: 9.38 mg/kg/injection, schedule: Q04DX003 (sc), vehicle: Klucel (hydroxypropylcellulose) (HPC)
  T/C: 62 % of control
dose: 18.75 mg/kg/injection, schedule: Q04DX003 (sc), vehicle: Klucel (hydroxypropylcellulose) (HPC)
  T/C: 87 % of control
dose: 37.5 mg/kg/injection, schedule: Q04DX003 (sc), vehicle: Klucel (hydroxypropylcellulose) (HPC)
  T/C: 64 % of control
dose: 75.0 mg/kg/injection, schedule: Q04DX003 (sc), vehicle: Klucel (hydroxypropylcellulose) (HPC)
  T/C: 46 % of control

## NC(=O)/C=C/c1c[nH]c2nccnc12
dose: 25.0 mg/kg/injection, schedule: Q04DX003 (sc), vehicle: water
  T/C: 98 % of control
dose: 50.0 mg/kg/injection, schedule: Q04DX003 (sc), vehicle: water
  T/C: 46 % of control

## CCCN1COC(OCC)C(C)(C)C1 (configuration not stated)
[1]
  T/C: 98 % of control
[2]
  T/C: 94 % of control
[3]
  T/C: 73 % of control

## O=S1(=O)C=C(c2ccccc2)C(c2ccccc2)=C1
[1]
  T/C: 80 % of control
[2]
  T/C: 71 % of control
[3]
  T/C: 83 % of control
dose: 2400.0 mg/kg/injection, schedule: Q04DX003 (sc), vehicle: saline with Tween-80
  T/C: 74 % of control

## BrC1CC(Br)c2c1c1c(c3c2C(Br)CC3Br)C(Br)CC1Br (configuration not stated)
dose: 300.0 mg/kg/injection, schedule: Q04DX003 (sc), vehicle: water
  T/C: 92 % of control
dose: 600.0 mg/kg/injection, schedule: Q04DX003 (sc), vehicle: water
  T/C: 104 % of control
dose: 1200.0 mg/kg/injection, schedule: Q04DX003 (sc), vehicle: water
  T/C: 120 % of control
dose: 2400.0 mg/kg/injection, schedule: Q04DX003 (sc), vehicle: water
  T/C: 50 % of control

## CC(=O)OCc1cc(=O)n(C)c2c3c4c(cc12)c(C)cc(=O)n4CO3
dose: 50.0 mg/kg/injection, schedule: Q01DX010 (sc), vehicle: Klucel (hydroxypropylcellulose) (HPC)
  T/C: 120 % of control
dose: 100.0 mg/kg/injection, schedule: Q01DX010 (sc), vehicle: Klucel (hydroxypropylcellulose) (HPC)
  T/C: 92 % of control

## COC1=CCC23C(=O)C=CC(=O)C2(C1)C(=O)c1ccccc1C3=O (configuration not stated)
dose: 37.5 mg/kg/injection, schedule: Q04DX003 (ip), vehicle: saline with Tween-80
  T/C: 109 % of control

## COC1=C(NC(C)=O)C(=O)c2nc(-c3nc(C(=O)O)c(C)c(-c4ccc(OC)c(OC)c4O)c3N)ccc2C1=O
dose: 50.0 mg/kg/injection, schedule: Q04DX003 (sc), vehicle: Klucel (hydroxypropylcellulose) (HPC)
  T/C: 118 % of control
dose: 100.0 mg/kg/injection, schedule: Q04DX003 (sc), vehicle: Klucel (hydroxypropylcellulose) (HPC)
  T/C: 47 % of control

## NC(=O)c1ccc[n+](Cc2c(Cl)cccc2Cl)c1
dose: 50.0 mg/kg/injection, schedule: Q04DX003 (sc), vehicle: saline
  T/C: 92 % of control
dose: 100.0 mg/kg/injection, schedule: Q04DX003 (sc), vehicle: saline
  T/C: 100 % of control

## COc1c(CNC(=O)CCl)cc2[nH]c(C)cc2c1CNC(=O)CCl
dose: 250.0 mg/kg/injection, schedule: Q04DX003 (sc), vehicle: Klucel (hydroxypropylcellulose) (HPC)
  T/C: 100 % of control
dose: 1000.0 mg/kg/injection, schedule: Q04DX003 (sc), vehicle: Klucel (hydroxypropylcellulose) (HPC)
  T/C: 55 % of control
dose: 2000.0 mg/kg/injection, schedule: Q04DX003 (sc), vehicle: Klucel (hydroxypropylcellulose) (HPC)
  T/C: 58 % of control

## CC(C)=CC(=O)OC1C2C(C)=CC(=O)C(O)C2(C)C2C3(O)OCC24C(CC(=O)OC14)C(C)C3O (configuration not stated)
dose: 1.25 mg/kg/injection, schedule: Q04DX003 (sc), vehicle: distilled water + Tween-80
  T/C: 41 % of control
dose: 2.5 mg/kg/injection, schedule: Q04DX003 (sc), vehicle: distilled water + Tween-80
  T/C: 82 % of control
dose: 5.0 mg/kg/injection, schedule: Q04DX003 (sc), vehicle: distilled water + Tween-80
  T/C: 71 % of control
dose: 10.0 mg/kg/injection, schedule: Q04DX003 (sc), vehicle: distilled water + Tween-80
  T/C: 88 % of control

## N[C@@H](Cc1c[nH]c2ccccc12)C(=O)Nc1nncs1
dose: 300.0 mg/kg/injection, schedule: Q04DX003 (ip), vehicle: suspension in saline
  T/C: 69 % of control
dose: 600.0 mg/kg/injection, schedule: Q04DX003 (ip), vehicle: suspension in saline
  T/C: 50 % of control
